The record followed here is the SangsterLogP compilation.

The logP is a log measure of how a compound divides between an organic and an aqueous phase.

As for `O=C(NC1CC1)c1ccccc1`, the logP was determined as 1.29.
With `O=C(c1ccccc1)N1CC2CCC(C1)C2(F)F` the figure was 2.09; with `O=C(Nc1ccccc1)[C@@H]1CC[C@H]1C(F)(F)F`, 2.88.
In turn, `CC(F)(F)CCC(=O)Nc1ccccc1` registered a logP of 2.12.
With `O=C(c1ccccc1)N1CCCCC1CF` (configuration not stated) the figure was 2.
As for `O=C(N[C@H]1C[C@@H](C(F)F)C1)c1ccccc1`, the lipophilicity (logP) is 1.98.
Compound `O=C(NC1CCCCC(F)(F)C1)c1ccccc1` (configuration not stated) had a logP of 2.57.
Next, `O=C(Nc1ccccc1)[C@@H]1CC[C@H]1CF`: 2.11; `O=C(NC1CC12CC2(F)F)c1ccccc1` (configuration not stated): 2.04.
With `O=C(Nc1ccccc1)C1CC2(CCC2)C1` the figure was 3.27.
Next, `O=C(c1ccccc1)N1CCCC(CF)C1` (configuration not stated): 1.52.
For `O=C(c1ccccc1)N1CC2CC1(C(F)(F)F)C2`, the lipophilicity (logP) came out at 1.93.
Next, `O=C(NC1CCCC(F)(F)C1)c1ccccc1` (configuration not stated): 2.31.
Next, `O=C(NC1(CF)CCC1)c1ccccc1`: 2.03; `O=C(Nc1ccccc1)[C@@H]1C[C@H]1CF`: 1.12; `O=C(Nc1ccccc1)C1CCC(F)(F)C1` (configuration not stated): 2.5.
With `CC12CC(CN1C(=O)c1ccccc1)C2` the figure was 1.75.
Compound `O=C(NCCC(F)(F)F)c1ccccc1` displayed a logP of 1.93.
In turn, `O=C(NC1CCCC(F)(F)CC1)c1ccccc1` (configuration not stated) registered a logP of 2.5.
As for `O=C(N[C@H]1C[C@H](CF)C1)c1ccccc1`, the logP came out at 1.78.
`O=C(N[C@@H]1CC[C@H]1CF)c1ccccc1`: the logP is 1.85.
Consider `O=C(c1ccccc1)N1CCC(CF)C1` (configuration not stated), for which the logP came out at 1.4.
Next, `O=C(NCCCC(F)F)c1ccccc1`: 1.76; `C[C@@H]1C[C@H]1C(=O)Nc1ccccc1`: 2.42; `O=C(c1ccccc1)N1CC2CCC(C2)C1`: 2.31.
With `O=C(Nc1ccccc1)C12CC(C(F)(F)F)(CO1)C2` the figure was 2.05.
Next, `O=C(c1ccccc1)N1CC2CCC1CC2`: 2.01; `O=C(N[C@H]1C[C@@H](C(F)(F)F)C1)c1ccccc1`: 2.62.
With `O=C(c1ccccc1)N1CCCC1`, the lipophilicity (logP) turned out to be 1.19.
Next, `O=C(c1ccccc1)N1CC2CCCC(C2)C1`: 2.36; `O=C(N[C@@H]1C[C@H]1C(F)(F)F)c1ccccc1`: 1.79; `O=C(NC1CCC1)c1ccccc1`: 1.95.
Next, `O=C(NC1(C(F)(F)F)CCC1)c1ccccc1`: 2.51; `O=C(N[C@H]1C[C@H]1C(F)F)c1ccccc1`: 1.36.
Consider `O=C(N[C@@H]1C[C@@H]2[C@H](C1)C2(F)F)c1ccccc1`, for which the logP is 2.23.
For the compound `O=C(c1ccccc1)N1CCC1C(F)(F)F` (configuration not stated), the logP was found to be 1.75.
With `O=C(NC1CCC(F)(F)CC1)c1ccccc1` the figure was 2.32; with `O=C(CCCC(F)F)Nc1ccccc1`, 2.06.
With `O=C(c1ccccc1)N1CC2CC(C1)CS(=O)(=O)C2` the figure was -0.34; with `O=C(N[C@@H]1CC[C@H]1C(F)(F)F)c1ccccc1`, 2.54; with `O=C(c1ccccc1)N1CCC(C(F)(F)F)C1` (configuration not stated), 1.7.
With `O=C(Nc1ccccc1)C1CC2(CC(F)C2)C1` (configuration not stated) the figure was 2.69.
`O=C(c1ccccc1)N1CC2CCCC1(C(F)(F)F)C2` (configuration not stated) gave a logP of 2.67.
With `O=C(c1ccccc1)N1CC(CF)C1`, the logP came to 0.93.
Next, `O=C(N[C@@H]1C[C@H]1CF)c1ccccc1`: 1.41.
With `O=C(Nc1ccccc1)C1CCCCCC1` the figure was 3.24; with `O=C(c1ccccc1)N1CCC(C(F)F)C1` (configuration not stated), 1.4; with `O=C(c1ccccc1)N1CC(F)C1`, 0.94.
Next, `O=C(Nc1ccccc1)C1CCCC(F)(F)C1` (configuration not stated): 2.72.
Compound `O=C(Nc1ccccc1)C12CC(CO1)C2` showed a logP of 1.54.
Next, `O=C(c1ccccc1)N1CCC(F)C1` (configuration not stated): 0.91.
With `O=C(NC1CCC1(F)F)c1ccccc1` (configuration not stated) the figure was 1.7; with `O=C(c1ccccc1)N1CCC1C(F)F` (configuration not stated), 1.51.
With `O=C(Nc1ccccc1)C1CC1(F)F` (configuration not stated) the figure was 2.07; with `O=C(NC1C(F)(F)C12CC2)c1ccccc1` (configuration not stated), 2.14; with `O=C(Nc1ccccc1)C1CCCCC1`, 2.88.
Compound `O=C(c1ccccc1)N1CCCCC1C(F)F` (configuration not stated) had a logP of 2.04.
With `CCCCC(=O)Nc1ccccc1`, the logP is 2.29.
With `C[C@@H]1C[C@@H]1C(=O)Nc1ccccc1` the figure was 2.31; with `O=C(Nc1ccccc1)C1CCC(F)(F)CC1`, 2.63; with `O=C(N[C@H]1C[C@@H]2C[C@@H]2C1)c1ccccc1`, 2.19.
In turn, `O=C(N[C@H]1C[C@H]1C(F)(F)F)c1ccccc1` gave a logP of 2.16.
For the compound `O=C(c1ccccc1)N1CC(C(F)(F)F)C1`, the logP was 1.66.
The compound `O=C(c1ccccc1)N1CCC(C(F)F)CC1` registered a lipophilicity (logP) of 1.67.
With `O=C(Nc1ccccc1)[C@H]1C[C@@H]2C[C@@H]2C1` the figure was 2.87; with `O=C(Nc1ccccc1)C1CCCC1(F)F` (configuration not stated), 2.25.
Compound `O=C(c1ccccc1)N1CC2CCC1(C(F)(F)F)CC2` came in with a logP of 2.51.
Next, `O=C(Nc1ccccc1)C1CC2(C1)CC(F)(F)C2`: 2.93.
With `O=C(c1ccccc1)N1CC2CCCC1C2` (configuration not stated) the figure was 1.88; with `O=C(NC1CCCC1(F)F)c1ccccc1` (configuration not stated), 1.87.
Compound `O=C(Nc1ccccc1)[C@H]1C[C@@H](C(F)F)C1` returned a logP of 2.23.
Next, `O=C(NCCCCF)c1ccccc1`: 1.56.
With `O=C(N[C@@H]1C[C@@H]2C[C@@H]2C1)c1ccccc1` the figure was 2.3; with `O=C(NC1CCCC1)c1ccccc1`, 2.23.
Next, `O=C(c1ccccc1)N1CCC1`: 1.13; `O=C(NC1CC(F)(F)C1)c1ccccc1`: 1.94.
`O=C(NC1CCCCCC1(F)F)c1ccccc1` (configuration not stated) gave a logP of 2.56.
`O=C(NCC(F)(F)F)c1ccccc1`: the logP came out at 1.76.
Next, `O=C(c1ccccc1)N1CC2CCCC(C1)C2(F)F`: 2.18; `O=C(Nc1ccccc1)[C@H]1C[C@H](C(F)(F)F)C1`: 3.02; `O=C(NC1CC1(F)F)c1ccccc1` (configuration not stated): 1.51.
Next, `O=C(Nc1ccccc1)[C@@H]1CC[C@H]1C(F)F`: 2.22.
Next, `O=C(Nc1ccccc1)C1CCCCC(F)(F)C1` (configuration not stated): 3.03; `O=C(Nc1ccccc1)[C@H]1C[C@H]1C(F)(F)F`: 2.12.
`C[C@@H]1C[C@@H]1NC(=O)c1ccccc1`: the logP came out at 1.64.
Next, `O=C(Nc1ccccc1)C1CC12CC2(F)F` (configuration not stated): 2.66.
Next, `O=C(c1ccccc1)N1CC2CC1C2`: 1.47; `O=C(Nc1ccccc1)C12CC(C(F)F)(CO1)C2`: 1.93.
Next, `O=C(Nc1ccccc1)C1CC12CC2` (configuration not stated): 2.35; `CC12CCCC(CN1C(=O)c1ccccc1)C2` (configuration not stated): 2.41; `CCC(F)(F)CC(=O)Nc1ccccc1`: 2.26.
As to `O=C(Nc1ccccc1)[C@@H]1CC[C@H]1F`, the logP came out at 2.04.
Next, `O=C(c1ccccc1)N1CC2CCC1C2` (configuration not stated): 1.65; `O=C(Nc1ccccc1)C1CC(F)(F)C1`: 2.26.
Compound `O=C(c1ccccc1)N1CCCC(F)(F)C1` showed a logP of 1.65.
`O=C(c1ccccc1)N1CC(C(F)F)C1` came in with a logP of 1.4.
With `O=C(NCCC(F)F)c1ccccc1` the figure was 1.49; with `O=C(Nc1ccccc1)C1C(F)(F)C12CC2` (configuration not stated), 2.42; with `O=C(c1ccccc1)N1CC2CC(C1)CC(F)(F)C2`, 1.59.
Next, `O=C(NC1CC12CC2)c1ccccc1` (configuration not stated): 2.08; `O=C(NC1CC2(C1)CC(F)(F)C2)c1ccccc1`: 2.53.
Compound `O=C(Nc1ccccc1)C1CCC1(F)F` (configuration not stated) displayed a logP of 2.03.
Next, `O=C(N[C@H]1C[C@@H](F)C1)c1ccccc1`: 1.67; `O=C(c1ccccc1)N1CC[C@@H](F)[C@H](F)C1`: 1.26; `O=C(c1ccccc1)N1CCCC1C(F)(F)F` (configuration not stated): 2.12.
Compound `O=C(NC1(C(F)F)CCC1)c1ccccc1` returned a logP of 2.48.
On to `O=C(NCCF)c1ccccc1`, for which the logP stood at 1.07.
Next, `O=C(c1ccccc1)N1C[C@@H](F)C[C@H](F)C1`: 1.35; `C[C@@H]1C[C@H]1NC(=O)c1ccccc1`: 1.83; `O=C(NC1CC2(CC(F)C2)C1)c1ccccc1` (configuration not stated): 2.39.
Next, `O=C(Nc1ccccc1)[C@H]1C[C@@H](F)C1`: 1.86.
With `O=C(Nc1ccccc1)[C@H]1C[C@H](F)C1` the figure was 2; with `O=C(Nc1ccccc1)[C@@H]1C[C@@H]2C[C@@H]2C1`, 2.92.
On to `O=C(Nc1ccccc1)C1(C(F)F)CCC1`, for which the logP stood at 2.19.
`O=C(NCCCF)c1ccccc1` registered a logP of 1.28.
Next, `O=C(c1ccccc1)N1C[C@@H](F)[C@@H](F)C1`: 1.01.
Next, `O=C(c1ccccc1)N1CC2COCC(C1)C2(F)F`: 1.19.
Next, `O=C(N[C@@H]1C[C@@H]1CF)c1ccccc1`: 1.12; `CC(F)(F)CCNC(=O)c1ccccc1`: 1.81; `O=C(c1ccccc1)N1CC2CCC1(C(F)(F)F)C2` (configuration not stated): 2.2.
The compound `O=C(Nc1ccccc1)[C@H]1C[C@@H](C(F)(F)F)C1` displayed a lipophilicity (logP) of 2.72.
Next, `O=C(c1ccccc1)N1C[C@H](F)C[C@H](F)C1`: 0.58.
Next, `O=C(c1ccccc1)N1CCCCC1`: 1.39; `O=C(c1ccccc1)N1CC[C@@H](F)[C@@H](F)C1`: 1.15; `CCNC(=O)c1ccccc1`: 1.31.
In turn, `O=C(c1ccccc1)N1CCC(CF)CC1` had a logP of 1.45.
With `O=C(NC1CCCCC1(F)F)c1ccccc1` (configuration not stated) the figure was 2.16.
